Target: T1, human CXCR2 receptor (Homo sapiens, UniProt P25025)
T1 construct: purchased Biosignal Packard Inc; host or cells: CHO-K1 membranes
T1 sequence (P25025 1-360): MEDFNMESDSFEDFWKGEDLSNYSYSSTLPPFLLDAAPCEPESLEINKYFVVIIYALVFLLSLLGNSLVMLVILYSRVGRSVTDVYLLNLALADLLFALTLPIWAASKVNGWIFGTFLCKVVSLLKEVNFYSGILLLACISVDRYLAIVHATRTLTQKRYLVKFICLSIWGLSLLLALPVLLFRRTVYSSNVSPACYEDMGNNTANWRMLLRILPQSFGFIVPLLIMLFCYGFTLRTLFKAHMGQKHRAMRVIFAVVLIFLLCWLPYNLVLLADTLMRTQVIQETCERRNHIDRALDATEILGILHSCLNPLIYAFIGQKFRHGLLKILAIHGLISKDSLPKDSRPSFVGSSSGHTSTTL
Experiment: [35S]-GTPγS binding assay for human CXCR2 receptor using SPA technology
Assay type: biochemical
Settings: CHO-K1 membranes expressing human CXCR2; 100 nM IL-8; read-out: IC50 in the [35S]-GPTγS binding assay
Text: [^35S]-GTPγS Binding Assay for Human CXCR2 Receptor using SPA Technology
[^35S]-GTPγS (with specific activity 1082 Ci/mmol) and wheat germ agglutinin poly vinyl toluene scintillation proximity beads are purchased from Amersham Pharmacia Biotech. The Chinese hamster ovary cell (CHO-K1) membranes expressing human CXCR2 receptors are purchased from Biosignal Packard Inc. All other chemicals are of analytical grade. White non-binding surface 96 well Optiplate™ microplates are obtained from Packard. Recombinant human IL-8 is synthesised, cloned and expressed in Escherichia coli as described previously (Lindley I, et al., Proc. Natl. Acad. Sci., 1988, 85(23):9199). The assay is performed in duplicate in 96 well Optiplate™ microplate in a final volume of 250 μl per well. Compounds are diluted in DMSO (0.5% final concentration) and incubated in 20 mM HEPES buffer pH 7.4 containing 10 mM MgCl2, 100 mM NaCl, 1 mM EDTA plus 100 nM IL-8, 50 μM GDP and […] [^35S]GTPγS per well. SPA beads (1 mg/well final concentration) were pre-mixed with the membranes (10 μg/well final concentration) in assay buffer: 20 mM HEPES buffer pH 7.4 containing 10 mM MgCl2, 100 mM NaCl, 1 mM EDTA. […] The plate is centrifuged and read on Packard TopCount™ scintillation counter, program [^35S dpm] for 1 min/well. Data are expressed as the % response to 100 nM IL-8 minus basal.

IC50 | Structure (SMILES)
820 nM | CCOC(=O)CNC(=O)[C@@H]1C[C@H]1c1nc(SCc2cccc(F)c2F)nc(O)c1C#N (relative stereo) [Example 49, Trans-({2-[5-Cyano-2-(2,3-difluoro-benzylsulfanyl)-6-hydroxy-pyrimidin-4-yl]-cyclopropanecarbonyl}-amino)-acetic acid ethyl ester]
230 nM | CCC1CCCN1C(=O)C1CC1c1nc(SCc2cccc(F)c2F)nc(O)c1C#N (centres unmarked) [Example 43, 2-(2,3-Difluoro-benzylsulfanyl)-4-[2-(2-ethyl-pyrrolidine-1carbonyl)-cyclopropyl]-6-hydroxypyrimidine-5-carbonitrile]

From patent publication US20100063080A1, “CXCR2 inhibitors” (priority 2006, published 2010)
